{"source": "patent US8865644B2", "about": "“Rapamycin formulation using recombinant high-density lipoprotein including apolipoprotein A-I and a mutant thereof” (Industry-Academic Cooperation Foundation, Yeungnam …, priority 2010, dated 2014)", "origin": "cited, not measured here"}
{"smiles": "CO[C@H]1C[C@@H]2CC[C@@H](C)[C@@](O)(O2)C(=O)C(=O)N2CCCC[C@H]2C(=O)O[C@H]([C@H](C)C[C@@H]2CC[C@@H](O)[C@H](OC)C2)CC(=O)[C@H](C)/C=C(\\C)[C@@H](O)[C@@H](OC)C(=O)[C@H](C)C[C@H](C)/C=C/C=C/C=C/1C", "note": "[rapamycin]", "values": [{"measurement": "solubility in water, aliphatic hydrocarbon and diethylether", "result": "hardly dissolved"}]}
